From patent EP4501112A1, “PLANT DEFENSE ELICITORS” (Globachem NV, priority 2023, dated 2025) come the findings set out here.

Assay type in all cases: in vivo
For assay [1], the system named is Winter wheat (cv. Keitum). The assay is described as follows: Biostimulant effect of seed coating on winter wheat (greenhouse, root scans). The text has this: [table] Table 13. Biostimulant effect of ammonium pelargonate on winter wheat (cv. Keitum) 14 days after sowing
Assay [2] has as its system Root knot nematode (Meloidogyne graminicola). The assay is described as follows: Root knot nematode gall development on wheat roots after treatment. As to conditions: foliar spraying, stock solution 200 x diluted; 400 J2 per plant 24 hours after treatment; 14 days after inoculation. On the procedure: DISEASE/PEST: Root knot nematode (Meloidogyne graminicola) CROP: Triticum aestivum APPLICATION: Foliar application EXPERIMENT/TRIAL PROTOCOL: After seed germination, wheat plants were grown individually for 2 weeks in a PVC tube (18 cm height, 3 cm diameter) filled with a substrate of sand and a water-absorbing polymer (DCM Aquaperla). Plants were grown at 24 °C and supplied with Hoagland solution and water 3 times per week. They were treated after 2 weeks. Twenty-four hours after treatment they were inoculated with 400 nematode juveniles (second stage; J2) per plant. 8 individual plants were analyzed per treatment. Evaluation of nematode infection was done 14 days after inoculation. Development of galls on the roots was microscopically observed and counted. No females were observed yet at this early time point, in any of the treatments. The number of galls was reduced in the […], pelargonic acid ([…] decanoic acid (pm4) treated plants. Azelaic acid (pm3) had no effect on gall numbers in the used concentration. FORMULATION USED: […] PM1 is already formulated.

The test system of assay [3] is Leptosphaeria maculans. The assay is described as follows: Seed treatment lab trial against Leptosphaeria maculans in oilseed rape seedlings. As to conditions: for Emax: Plenodomus lingam, in Brassica napus, 144 h, 6 days after inoculation, read-out: % Efficacy. The text has this: [table] Table 8: Efficacy assessment of fatty acids in seed treatment of Leptosphaeria maculans in oilseed rape (variety Helga)

Assay [4] deals with Fusarium culmorum. The assay is described as follows: whole plant or invertebrate. As to conditions: for Emax: Fusarium culmorum, in Triticum aestivum, 144 h, read-out: % Efficacy.
Assay [5] concerns Spodoptera exigua. The assay is described as follows: S. exigua survival, larval weight and leaf damage on pea plants after foliar spray. Also on record: key to plant damage (1 to 5 scale): 0=no damage or no sucking observed; 1=some damage or some sucking observed; 3=half leaf eaten or half of aphids sucking the leaf; 5=no leaf left or all insects sucking and reproducing. The following applies: 0.016 g in 5 mL water with 0.25% tween 20, foliar. The protocol: DISEASE/PEST: Spodoptera exigua CROP: pea plants (Pisum sativum) APPLICATION: FOLIAR EXPERIMENT/TRIAL PROTOCOL: Peas were grown in pots in the greenhouse (4 plants/pot). […] Plants were sprayed with a small handheld sprayer. 5 ml of spraying volume was applied. First instar (L1) Spodoptera larvae were added to the plants 24h after the treatment. Plant damage, larval survival and larval weight were followed up for 12 days. […] Table 4. Effect on survival and leaf damage of S. exigua on P. sativum.

Where [6] appears, read: seed coating 2 L/mt, 14 days after sowing.
Where [7] appears, read: seed coating 2 L/mt, 14 days after sowing, relative to untreated check.

Like-named read-outs stand apart in the source and are kept apart here.

Turning to `CCCCCCCCC(=O)O.N` [Ammonium pelargonate], the “root length, surface and volume, tips and forks per plant” value in assay [1] (coated seeds compared with untreated seedlings) is “Seeds coated with ammonium pelargonate showed an increase in root length, surface and volume and an increase in tips and forks per plant. (Table 12)”. In assay [1] (setting [6]), the “Forks (#/plant)” value was 330.70 #/plant, the “Fresh weight (g/plant)” value was determined as 0.53 g/plant, the “Plant height (cm)” value worked out at 22.5 cm and the “Root diameter (mm)” value is given as 0.27 mm. Further, in assay [1] (setting [6]), the “Root length (cm)” value was found to be 142.1 cm, the “Root surface (cm^2)” value was 11.90 cm^2, the “Root volume (cm^3)” value came to 0.08 cm^3 and the “Tillers (#/plant)” value was 0.40 #/plant. Besides, the “Tips (#/plant)” value in assay [1] (setting [6]) was 1585.20 #/plant. In addition, in assay [1] (setting [7]), the “Forks (%UNCK)” value is listed as 146.65 %UNCK, the “Fresh weight (%UNCK)” value amounted to 99.81 %UNCK, the “Plant height (%UNCK)” value is reported as 100.9 %UNCK and the “Root diameter (%UNCK)” value is listed as 95.08 %UNCK. Further, in assay [1] (setting [7]), the “Root length (%UNCK)” value amounted to 131.5 %UNCK, the “Root surface (%UNCK)” value was found to be 124.21 %UNCK, the “Root volume (%UNCK)” value is listed as 117.23 %UNCK and the “Tips (%UNCK)” value is 120.36 %UNCK.

As for `O=C(O)CCCCCCCC(=O)O` [Azaleic acid, Azelaic acid], the number of galls result in assay [2] is on record as “no effect”. Moreover, the Emax in assay [3] (seed treatment 1.52 g/ton) came to 100%; in assay [3] (seed treatment 2.28 g/ton), 100%; in assay [3] (seed treatment 3.04 g/ton), 100%; in assay [3] (seed treatment 4.56 g/ton), 80%; in assay [3] (seed treatment 6.08 g/ton) it was 80%; in assay [3] (seed treatment 7.60 g/ton), 80%.

For the compound `CCCCCCCC(=O)O` [Caprylic acid, caprylic acid], the number of galls result in assay [2] is reported as “reduced”. Also, the Emax in assay [4] (seed treatment 6.08 g/ton), in assay [4] (seed treatment 7.60 g/ton) and in assay [3] (seed treatment 7.60 g/ton) was 80% each time.

On to `CCCCCCCCCC(=O)O` [Decanoic acid, decanoic acid], for which the “Larval weight at day 12” value in assay [5] (L1 larvae added 24h after treatment) was 196 mg. For the same compound, in assay [5] (L1 larvae added 24h after treatment, 22 larvae at start), the “Number of larvae after 12 days” value is reported as 18. Also, the “plant damage (1 to 5 scale)” value in assay [5] (followed up for 12 days) is given as 1. The number of galls entry in assay [2] is given as “reduced”. The Emax in assay [4] (seed treatment 4.56 g/ton) turned out to be 60%; in assay [4] (seed treatment 6.08 g/ton) it was 60%; in assay [4] (seed treatment 7.60 g/ton), 80%; in assay [3] (seed treatment 2.28 g/ton), 80%.

For Ammonium percholate, the “% efficacy” value in assay [4] (in vivo) was found to be 60%; in assay [3] (in vivo) it was 70%.
